This assay concerns the target PHD2 (Homo sapiens (Human), UniProt Q9GZT9). The experiment in a line: PHD2 RF-MS (RapidFire LC-MS) hydroxylation assay. It is filed as biochemical. As to the method: In brief, cDNA encoding for the catalytic domain of tPHD2 (181-426 residues) was cloned into the pET28a (+)/pET24a (+) vectors (Novagen), to enable production of tPHD2 (residues 181-426) protein with/without an N-terminal His6-tag. The tPHD2 (residues 181-426) encoding construct was transformed into the Escherichia coli BL21 DE3 cell line; protein production was induced with 0.5 mM […] (3-5 hr at 28° C.). […] The protein was exchanged into 50 mM Tris-HCl buffer (pH 7.5) and concentrated to % 40 mg/ml.
Tris(hydroxymethyl)aminomethane was from Fisher. Ferrous ammonium sulfate (FAS), 2-oxoglutarate (2OG) and L-ascorbic acid were from Sigma Aldrich; solutions of these were prepared freshly each day. All inhibition assays were carried out in 384-well polypropylene plates (Greiner Bio-One). PHD2 assays were performed in assay buffer (50 mM Tris. Cl pH 7.5, 50 mM NaCl). […] The final assay concentration of DMSO was kept constant at 0.5%. PHD2 protein was prepared at a concentration of 300 nM in assay buffer and 25 μl dispensed across each 384-well assay plate. The PHD2 solution was allowed to equilibrate with the inhibitors for 15 minutes at room temperature; the enzyme reaction then initiated by dispense of 25 μl of substrate (20 μM FAS, 200 µM L-ascorbic acid, 10 μM CODD peptide and 20 μM 2OG in the assay buffer. Enzyme reactions were allowed to proceed for 20 minutes at room temperature and the reaction terminated by addition of 10% formic acid (5 μl). Assay plates were then transferred to a RapidFire RF360 sampling robot (Agilent) connected to an Agilent 6530 accurate mass quadrupole-time-of-flight (Q-TOF) mass spectrometer. Assay samples were aspirated under vacuum and loaded onto a C4 solid phase extraction (SPE) cartridge. After loading the C4 SPE was washed with 0.1% formic acid in water to remove non-volatile buffer salts and then peptide was eluted from the SPE with 85% acetonitrile, 15% water containing 0.1% formic acid onto the mass spectrometer. Peptide charge states were monitored in positive mode. Ion chromatogram data were extracted for the +2 charge state and peak area data integrated using RapidFire Integrator software (Agilent). % conversion of the CODD peptide substrate to the +16 hydroxylated peptide was calculated using the equation: % conversion=100×hydroxylated/(hydroxylated+non-hydroxylated peptide). IC50 values were determined from non-linear regression plots using GraphPad prism.
Example 158—Structure activity relationship (SAR) studies for PHD inhibition SAR studies for PHD inhibition were carried out on the compounds of the invention. Compounds were screened against PHD2 using the RF-MS hydroxylation assay.

As a reminder, the IC50 is the concentration needed to halve the response being measured. Read a high IC50 as lower potency.

Chain of PHD2 (Q9GZT9 181-426): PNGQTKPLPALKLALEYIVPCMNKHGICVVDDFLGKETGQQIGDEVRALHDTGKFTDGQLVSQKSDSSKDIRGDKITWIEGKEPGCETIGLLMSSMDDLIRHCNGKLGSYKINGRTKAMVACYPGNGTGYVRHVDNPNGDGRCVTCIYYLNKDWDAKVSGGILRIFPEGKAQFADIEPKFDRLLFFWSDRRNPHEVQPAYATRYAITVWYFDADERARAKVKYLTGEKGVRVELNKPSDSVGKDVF

On to `O=C(NCc1ccc(-c2ccccc2)cc1)c1ccc(-n2cccn2)cc1O` [Compound 16, N-([1,1′-biphenyl]-4-ylmethyl)-2-hydroxy-4-(1H-pyrazol-1-yl)benzamide], for which the half-inhibitory concentration (IC50) is over 10000 nM.

As for `O=C(NCc1ccc(-c2ccccc2)cc1)c1cnc(-n2cccn2)nc1` [Compound 20, N-([1,1′-Biphenyl]-4-ylmethyl)-2-(1H-pyrazol-1-yl)pyrimidine-5-carboxamide], the half-maximal inhibitory concentration (IC50) was over 10000 nM.

Compound `O=C(NCc1ccc(-c2ccccc2)cc1)c1ccc(-n2cccn2)nc1` [Compound 22, N-([1,1′-Biphenyl]-4-ylmethyl)-6-(1H-pyrazol-1-yl) nicotinamide] returned a 50% inhibitory concentration (IC50) of over 10000 nM.

For the compound `O=C(O)c1cnn(-c2ccc(C(=O)NCc3ccc(-c4ccccc4)cc3)cn2)c1` [Compound 31, 1-(5-(([1,1′-Biphenyl]-4-ylmethyl)carbamoyl)pyridine-2-yl)-1H-pyrazole-4-carboxylic acid], the IC50 is 1 to 1000 nM.

In turn, `O=C(O)c1cnn(-c2ccc(C(=O)NCc3ccccc3)cn2)c1` [Compound 32, 1-(5-(Benzylcarbamoyl)pyridin-2-yl)-1H-pyrazole-4-carboxylic acid] had a half-maximal inhibitory concentration (IC50) of 1000 to 10000 nM.

Consider `O=C(NCc1ccc(-c2ccccc2)cc1)c1cnc(-n2cccn2)cc1O` [Compound 41, N-([1,1′-Biphenyl]-4-ylmethyl)-4-hydroxy-6-(1H-pyrazol-1-yl) nicotinamide], for which the IC50 was 1 to 1000 nM.

`O=C(Nc1ccc(-c2ccccc2)cc1)c1cnc(-n2cccn2)cc1O` [Compound 42, N-([1,1′-Biphenyl]-4-yl)-4-hydroxy-6-(1H-pyrazol-1-yl) nicotinamide] gave a 50% inhibitory concentration (IC50) of 1 to 1000 nM.

On to `O=C(NCc1cccc(C(F)(F)F)c1)c1cnc(-n2cccn2)cc1O` [Compound 43, 4-Hydroxy-6-(1H-pyrazol-1-yl)-N-(3-(trifluoromethyl)benzyl) nicotinamide], for which the IC50 fell in the range of 1000 to 10000 nM.

Turning to `O=C(NCC1CCCCC1)c1cnc(-n2cccn2)cc1O` [Compound 44, N-(Cyclohexylmethyl)-4-hydroxy-6-(1H-pyrazol-1-yl) nicotinamide], the half-maximal inhibitory concentration (IC50) was over 10000 nM.

In turn, `O=C(NCc1ccc(C(F)(F)F)cc1)c1cnc(-n2cccn2)cc1O` [Compound 64, 4-Hydroxy-6-(1H-pyrazol-1-yl)-N-(4-(trifluoromethyl)benzyl) nicotinamide] yielded a half-maximal inhibitory concentration (IC50) of 1 to 1000 nM.

For the compound `O=C(NCc1cccc(-c2ccccc2)c1)c1cnc(-n2cccn2)cc1O` [Compound 65, N-([1,1′-Biphenyl]-3-ylmethyl)-4-hydroxy-6-(1H-pyrazol-1-yl) nicotinamide], the half-maximal inhibitory concentration (IC50) lay in the range of 1 to 1000 nM.

Take `O=C(Nc1cccc(-c2ccccc2)c1)c1cnc(-n2cccn2)cc1O` [Compound 66, N-([1,1′-Biphenyl]-3-yl)-4-hydroxy-6-(1H-pyrazol-1-yl) nicotinamide]: the half-maximal inhibitory concentration (IC50) lay in the range of 1 to 1000 nM.

Take `O=C(NCc1ccc(OC(F)(F)F)cc1)c1cnc(-n2cccn2)cc1O` [Compound 67, 4-Hydroxy-6-(1H-pyrazol-1-yl)-N-(4-(trifluoromethyloxy)benzyl) nicotinamide]: the half-maximal inhibitory concentration (IC50) lay within 1 to 1000 nM.

`O=C(NCc1ccc(-c2ccccc2)nc1)c1cnc(-n2cccn2)cc1O` [Compound 69, 4-Hydroxy-N-((6-phenylpyridin-3-yl)methyl)-6-(1H-pyrazol-1-yl) nicotinamide] yielded a half-maximal inhibitory concentration (IC50) of 1 to 1000 nM.

With `O=C(NCc1ccc(-c2ccccc2)cc1)c1cnc(-n2cccn2)c(O)c1` [Compound 75, N-([1,1′-Biphenyl]-4-ylmethyl)-5-hydroxy-6-(1H-pyrazol-1-yl) nicotinamide], the IC50 lay within 1000 to 10000 nM.

With `O=C(NCc1cccc(-c2ccccc2)c1)c1cnc(-n2cccn2)c(O)c1` [Compound 76, N-([1,1′-Biphenyl]-3-ylmethyl)-5-hydroxy-6-(1H-pyrazol-1-yl) nicotinamide], the concentration for half-maximal inhibition (IC50) lay in the range of 1000 to 10000 nM.

Consider `O=C(O)c1cnn(-c2cc(O)c(C(=O)NCc3ccc(-c4ccccc4)cc3)cn2)c1` [Compound 84, 1-(5-(([1,1′-Biphenyl]-4-ylmethyl)carbamoyl)-4-hydroxypyridin-2-yl)-1H-pyrazole-4-carboxylic acid], for which the IC50 fell in the range of 1 to 1000 nM.

The compound `N#Cc1cnn(-c2cc(O)c(C(=O)NCc3ccc(-c4ccccc4)cc3)cn2)c1` [Compound 85, N-([1,1′-Biphenyl]-4-ylmethyl)-6-(4-cyano-1H-pyrazol-1-yl)-4-hydroxynicotinamide] gave a half-maximal inhibitory concentration (IC50) of 1 to 1000 nM.

With `O=C(O)c1cnn(-c2ncc(C(=O)NCc3ccc(-c4ccccc4)cc3)cc2O)c1` [Compound 86, 1-(5-(([1,1′-Biphenyl]-4-ylmethyl)carbamoyl)-3-hydroxypyridin-2-yl)-1H-pyrazole-4-carboxylic acid], the IC50 lay within 1 to 1000 nM.

With `N#Cc1cnn(-c2cc(O)c(C(=O)NCc3ccc(C(F)(F)F)cc3)cn2)c1` [Compound 89, 6-(4-Cyano-1H-pyrazol-1-yl)-4-hydroxy-N-(4-(trifluoromethyl)benzyl) nicotinamide], the IC50 was 1 to 1000 nM.

In turn, `O=C(O)c1cnn(-c2cc(O)c(C(=O)NCc3ccc(C(F)(F)F)cc3)cn2)c1` [Compound 90, 1-(4-Hydroxy-5-((4-(trifluoromethyl)benzyl)carbamoyl)pyridin-2-yl)-1H-pyrazole-4-carboxylic acid] yielded a half-maximal inhibitory concentration (IC50) of 1 to 1000 nM.

In the case of `O=C(O)c1cnn(-c2cc(O)c(C(=O)NCc3ccc(-c4ccccc4)nc3)cn2)c1` [Compound 91, 1-(4-Hydroxy-5-(((6-phenylpyridin-3-yl)methyl)carbamoyl)pyridin-2-yl)-1H-pyrazole-4-carboxylic acid], the 50% inhibitory concentration (IC50) is 1 to 1000 nM.

Take `COc1cc(-n2cc(C(=O)NCc3ccc(-c4ccccc4)cc3)cn2)ncc1C#N` [Compound 93, N-([1,1′-Biphenyl]-4-ylmethyl)-1-(5-cyano-4-methoxypyridin-2-yl)-1H-pyrazole-4-carboxamide]: the concentration for half-maximal inhibition (IC50) is over 10000 nM.

Regarding `N#Cc1cnc(-n2cc(C(=O)NCc3ccc(-c4ccccc4)cc3)cn2)cc1O` [Compound 95, N-([1,1′-Biphenyl]-4-ylmethyl)-1-(5-cyano-4-hydroxypyridin-2-yl)-1H-pyrazole-4-carboxamide], the half-maximal inhibitory concentration (IC50) was in the range of 1 to 1000 nM.

In turn, `O=C(NCc1ccc(-c2ccccc2)cc1)c1cnn(-c2cc(O)c(C(=O)O)cn2)c1` [Compound 96, 6-(4-(([1,1′-Biphenyl]-4-ylmethyl)carbamoyl)-1H-pyrazol-1-yl)-4-hydroxynicotinic acid] displayed a half-maximal inhibitory concentration (IC50) of 1000 to 10000 nM.

The compound `N#Cc1ccc(-n2cc(C(=O)NCc3ccc(-c4ccccc4)cc3)cn2)nc1` [Compound 97, N-([1,1′-Biphenyl]-4-ylmethyl)-1-(5-cyanopyridin-2-yl)-1H-pyrazole-4-carboxamide] registered an IC50 of over 10000 nM.

For `O=C(NCc1ccc(-c2ccccc2)cc1)c1cnn(-c2cc(O)ccn2)c1` [Compound 99, N-([1,1′-Biphenyl]-4-ylmethyl)-1-(4-hydroxypyridin-2-yl)-1H-pyrazole-4-carboxamide], the half-inhibitory concentration (IC50) lay in the range of 1000 to 10000 nM.

With `O=C(O)c1ccc(-n2cc(C(=O)NCc3ccc(-c4ccccc4)cc3)cn2)nc1` [Compound 101, 6-(4-(([1,1′-Biphenyl]-4-ylmethyl)carbamoyl)-1H-pyrazol-1-yl) nicotinic acid], the IC50 lay within 1000 to 10000 nM.

For the compound `O=C(O)c1ccnc(-n2cc(C(=O)NCc3ccc(-c4ccccc4)cc3)cn2)c1` [Compound 103, 2-(4-(([1,1′-Biphenyl]-4-ylmethyl)carbamoyl)-1H-pyrazol-1-yl) isonicotinic acid], the half-maximal inhibitory concentration (IC50) is over 10000 nM.

Regarding `O=C(Nc1ccc(-c2ccccc2)cc1)c1cnn(-c2cc(O)ccn2)c1` [Compound 108, N-([1,1′-Biphenyl]-4-yl)-1-(4-hydroxypyridin-2-yl)-1H-pyrazole-4-carboxamide], the half-maximal inhibitory concentration (IC50) is over 10000 nM.

Compound `O=C(NCc1cccc(-c2ccccc2)c1)c1cnn(-c2cc(O)ccn2)c1` [Compound 109, N-([1,1′-Biphenyl]-3-ylmethyl)-1-(4-hydroxypyridin-2-yl)-1H-pyrazole-4-carboxamide] gave a half-maximal inhibitory concentration (IC50) of 1000 to 10000 nM.

Take `COc1cc(C(=O)NCc2ccc(-c3ccccc3)cc2)cnc1-n1cc(C#N)cn1` [Compound 124, N-([1,1′-biphenyl]-4-ylmethyl)-6-(4-cyano-1H-pyrazol-1-yl)-5-methoxynicotinamide]: the IC50 is 1 to 1000 nM.

Compound `N#Cc1cnn(-c2ncc(C(=O)NCc3ccc(-c4ccccc4)cc3)cc2O)c1` [Compound 125, N-([1,1′-biphenyl]-4-ylmethyl)-6-(4-cyano-1H-pyrazol-1-yl)-5-hydroxynicotinamide] returned a concentration for half-maximal inhibition (IC50) of 1 to 1000 nM.
